Data taken from US20210269451A1, “PYRIDINYL HETEROCYCLYL COMPOUNDS FOR THE TREATMENT OF AUTOIMMUNE DISEASE” (Hoffmann-La Roche Inc., priority 2018, published 2021).

Target: T1, hTLR9 (Homo sapiens, UniProt Q9NR96)
T1 sequence (Q9NR96 26-1032): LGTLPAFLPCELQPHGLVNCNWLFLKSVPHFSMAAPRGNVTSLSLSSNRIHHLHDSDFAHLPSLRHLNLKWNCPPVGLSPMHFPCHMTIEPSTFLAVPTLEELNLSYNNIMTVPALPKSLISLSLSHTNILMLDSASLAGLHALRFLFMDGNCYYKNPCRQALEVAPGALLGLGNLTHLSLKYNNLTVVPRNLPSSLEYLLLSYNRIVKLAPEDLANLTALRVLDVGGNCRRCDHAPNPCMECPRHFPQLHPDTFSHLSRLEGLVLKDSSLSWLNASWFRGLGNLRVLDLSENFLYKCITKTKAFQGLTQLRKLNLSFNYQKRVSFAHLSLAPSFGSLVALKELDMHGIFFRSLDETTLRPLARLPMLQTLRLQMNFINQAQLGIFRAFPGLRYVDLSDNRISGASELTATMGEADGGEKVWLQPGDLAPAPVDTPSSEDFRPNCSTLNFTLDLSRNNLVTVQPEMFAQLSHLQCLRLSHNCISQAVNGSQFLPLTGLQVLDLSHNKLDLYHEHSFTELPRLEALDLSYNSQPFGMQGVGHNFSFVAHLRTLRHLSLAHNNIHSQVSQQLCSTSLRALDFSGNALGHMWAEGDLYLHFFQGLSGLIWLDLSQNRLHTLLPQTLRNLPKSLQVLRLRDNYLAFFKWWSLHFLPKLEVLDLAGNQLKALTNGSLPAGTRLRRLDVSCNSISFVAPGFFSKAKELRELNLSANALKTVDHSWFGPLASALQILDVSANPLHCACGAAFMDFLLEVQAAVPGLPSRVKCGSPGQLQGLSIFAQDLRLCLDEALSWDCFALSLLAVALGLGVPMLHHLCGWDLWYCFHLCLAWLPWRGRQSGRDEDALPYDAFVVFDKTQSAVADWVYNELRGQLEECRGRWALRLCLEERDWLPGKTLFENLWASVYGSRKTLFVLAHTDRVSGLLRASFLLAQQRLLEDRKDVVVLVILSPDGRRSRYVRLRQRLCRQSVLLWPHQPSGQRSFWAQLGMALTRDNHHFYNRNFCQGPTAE
Experiment: HEK293-Blue-hTLR-9 cells assay
Assay type: cell-based
Parameters: host or cells: HEK293-Blue-hTLR-9 (HEK293)
Conditions: HEK293-Blue-hTLR9 cells, ODN2006 stimulation, 20 hrs, SEAP reporter; read-out: HEK/hTLR9 IC50
Protocol: The following tests were carried out in order to determine the activity of the compounds of formula (I) and (Ia) in HEK293-Blue-hTLR-7/8/9 cells assay.
HEK293-Blue-hTLR-9 cells assay:
A stable HEK293-Blue-hTLR-9 cell line was purchased from InvivoGen (Cat. #: hkb-htlr9, San Diego, Calif., USA). These cells were originally designed for studying the stimulation of human TLR9 by monitoring the activation of NE-KB. A SEAP (secreted embryonic alkaline phosphatase) reporter gene was placed under the control of the IFN-β minimal promoter fused to five NE-κB and AP-1-binding sites. The SEAP was induced by activating NE-κB and AP-1 via stimulating HEK-Blue hTLR9 cells with TLR9 ligands. Therefore the reporter expression was declined by TLR9 antagonist under the stimulation of a ligand, such as ODN2006 (Cat. #: tlrl-2006-1, Invivogen, San Diego, Calif., USA), for incubation of 20 hrs. The cell culture supernatant SEAP reporter activity was determined using QUANTI-Blue™ kit (Cat. #: rep-qb1, Invivogen, San Diego, Calif., USA) at a wavelength of 640 nm, a detection medium that turns purple or blue in the presence of alkaline phosphatase.
HEK293-Blue-hTLR9 cells were incubated at a density of 250,000˜450,000 cells/mL in a volume of 170 μL in a 96-well plate in Dulbecco's Modified Eagle's medium (DMEM) containing 4.5 g/L glucose, 50 U/mL penicillin, […], […], 2 mM L-glutamine, 10% (v/v) heat-inactivated fetal bovine serum with addition of 20 μL test compound in a serial dilution in the presence of final DMSO at 1% and 10 μL of 20 uM ODN2006 in above DMEM, perform incubation under 37° C. in a CO2 incubator for 20 hrs. Then 20 μL of the supernatant from each well was incubated with 180 μL Quanti-blue substrate solution at 37° C. for 2 h and the absorbance was read at 620˜655 nm using a spectrophotometer. The signaling pathway that TLR9 activation leads to downstream NE-κB activation has been widely accepted, and therefore similar reporter assay was modified for evaluating TLR9 antagonist.

| IC50 | SMILES |
| --- | --- |
| 36 nM | C[C@@H]1CN(c2ccc(C#N)c3ncccc23)C[C@H](CNC2CCN(c3ccnc(N)c3)CC2)O1 [Example 20, 5-[(2S,6R)-2-[[[1-(2-amino-4-pyridyl)-4-piperidyl]amino]methyl]-6-methyl-morpholin-4-yl]quinoline-8-carbonitrile] |
| 160 nM | Cc1cc(N2CC(N(C)C[C@H]3CN(c4ccc(C#N)c5ncccc45)C[C@@H](C)O3)C2)cc(CO)n1 [Example 37] |
| 41 nM | Cc1cc(N2CCN(C[C@H]3CN(c4ccc(C#N)c5ncccc45)C[C@@H](C)O3)CC2)cc(N)n1 [Example 40, 5-[(2S,6R)-2-[[4-(2-amino-6-methyl-4-pyridyl)piperazin-1-yl]methyl]-6-methyl-morpholin-4-yl]quinoline-8-carbonitrile] |
| 32 nM | Cc1cc(NC2CCN(C[C@H]3CN(c4ccc(C#N)c5ncccc45)C[C@@H](C)O3)CC2)cc(CO)n1 [Example 5] |
| 59 nM | Cc1cc(N2CC[C@H](NC[C@H]3CN(c4ccc(C#N)c5ncccc45)C[C@@H](C)O3)C2)cc(CO)n1 [Example 29] |
| 148 nM | C[C@@H]1CN(c2ccc(C#N)c3ncccc23)C[C@H](CN2CC3(C2)CN(c2ccnc(C(C)(C)O)c2)C3)O1 [Example 48, 5-[(2S,6R)-2[[2-[2-(1-hydroxy-1-methyl-ethyl)-4-pyridyl]-2,6-diazaspiro[3.3]heptan-6-yl]methyl]-6-methyl-morpholin-4-yl]quinoline-8-carbonitrile] |
| < 32 nM | CC(O)c1cc(N2CC3(CN(C[C@H]4CN(c5ccc(C#N)c6ncccc56)C[C@@H](C)O4)C3)C2)ccn1 (stereo partly drawn) [Example 46, 5-[(2S,6R)-2-[[2-[2-(1-hydroxyethyl)-4-pyridyl]-2,6-diazaspiro[3.3]heptan-6-yl]methyl]-6-methyl-morpholin-4-yl]quinoline-8-carbonitrile] |
| 155 nM | Cc1cc(N2CC[C@@H](F)[C@H](NC[C@H]3CN(c4ccc(C#N)c5ncccc45)C[C@@H](C)O3)C2)cc(CO)n1 [Example 34] |
